Source: article PMC12214158, “Structure–activity relationship of ^18F-labeled PD-L1-targeting small molecule ligands: impact of radiolabeling strategy on affinity and in vivo performance” (EJNMMI Radiopharmacy and Chemistry, 2025)

Tests used:
human PD-L1 = target: T1, human PD-L1 (Homo sapiens, UniProt Q9NZQ7); experiment: Competition binding assay against [^64Cu]Cu-1 on PC3 PD-L1 overexpressing cells; settings: against [^64Cu]Cu-1 (30 nM), 14 dilutions 1 µM–120 pM, n = 2 from triplicates, read-out: Ki (inhibitory constant from competition binding assay)
T1 construct: expressed in transfected cells; host or cells: PC3 cells (human prostate carcinoma) transduced to overexpress human PD-L1
T1 sequence (Q9NZQ7 19-290): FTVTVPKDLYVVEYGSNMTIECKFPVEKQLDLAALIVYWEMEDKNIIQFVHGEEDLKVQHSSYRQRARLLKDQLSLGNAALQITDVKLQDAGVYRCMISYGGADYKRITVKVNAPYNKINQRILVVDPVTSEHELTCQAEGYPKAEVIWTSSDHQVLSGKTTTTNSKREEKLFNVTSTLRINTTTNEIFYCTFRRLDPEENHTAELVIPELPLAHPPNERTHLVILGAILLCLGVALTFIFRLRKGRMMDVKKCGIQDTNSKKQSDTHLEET
Description: Prior to competition binding experiments, cells were detached with 0.05% Trypsin–EDTA (Gibco, USA), trypsinized and counted (CASY1 cell counter, Schaerfe System, Reutlingen, Germany). Cells were then diluted in medium to ~ 320,000 cells/mL and seeded to 48 well plates (Falcon Multiwell #353078, ThermoFisher, Karlsruhe, Germany) for at least one day.
For the determination of inhibitory constant (Ki), competition binding experiments were conducted in a minimum of two independent experiments, with each data point formed from triplicates. For this purpose, all described compounds competed with a previously reported biphenyl-based PD-L1 small molecule radioligand (Krutzek et al. [2023b]).
Human PD-L1 transduced PC3 cells were grown under conditions described above. For the experiments, plates were allowed to reach room temperature followed by cooling on ice (each 15 min). 200 µL of assay buffer (PBS) replaced the culture. For each compound, total binding (TB) of the radioligand was determined, along with […] of BMS-1166 (synthesized according to reference (Guzik et al. [2017]) (dissolved in DMSO, resulting in 0.03% v/v) for estimation of nonspecific binding (NSB).
Incubation for 90 min followed, wells were then washed with ice-cold assay buffer (3 washes) and cells subjected to lysis (500 µL of 0.1 M NaOH + 1% SDS). The radioactivity of 400 µL lysate was assessed via a gamma counter (Perkin Elmer Wizard 1480). Binding to polystyrene was determined on an extra plate without any cells under identical conditions. Activity and therefore concentration of the radioligand stock solution was confirmed via 50 µL samples. Data was corrected for radioactive decay to a reference time (end of radiolabeling). The protein content of lysates from a control plate (seeded from the same cell suspension, incubated under identical conditions) was quantified using a BCA assay, and the mean value (µg/mL) was employed for this specific dataset. Via mean protein content and molar activity, final values (pmol/mg protein) were computed from the CPM measurements. Ki was fitted via a One site model (GraphPad Prism 10), using the previously determined KD for the radiolabeled compound and the actual concentration of the radioligand.

[1] = Proteolytic stability in human serum, radio-HPLC; assay type: in vitro ADME; settings: 37 °C, all time points up to 4 h
Description: With both ^18F-ligands in hand, distribution coefficients (log D7.4) were determined using the shake flask method with n-octanol and PBS. The introduction of three hydrophilizing units led to log D7.4 values of − 2.54 ± 0.02 for [^18F]F-2 and − 2.68 ± 0.08 for [^18F]F-3, which indicates moderate hydrophilicity. Subsequently, proteolytic stability was investigated (Supplementary Fig. S68 and S69), by incubating in human serum at 37 °C for up to 4 h. Before incubation (0 h) and 0.5, 1, 2 and 4 h after incubation, an aliquot was taken, and serum proteins were precipitated. Analysis of radiotracers was performed with radio-HPLC, showing the intact radiotracers (0 h) at 7.0 ([^18F]F-2) and 7.7 min ([^18F]F-3). At all time points, radiotracers remained intact up to 99%.
Subsequently, proteolytic stability was investigated (Supplementary Fig. S70 and S71), by incubating in human serum at 37 °C for up to 4 h. Before incubation (0 h) and 0.5, 1, 2 and 4 h after incubation, an aliquot was taken, and serum proteins were precipitated. Analysis of radiotracers was performed with radio-HPLC, showing the intact radiotracers (0 h) at 7.9 (Al[^18F]F-36) and 8.1 min (Al[^18F]F-37). After 4 h, both radiotracers remained intact up to 91% and 92%, respectively.
For proteolytic stability studies, a solution of the radiolabeled compound was diluted with human serum in a ratio of 1:10. […]

[2] = tested on: NMRI-nude mice bearing PC3 PD-L1 and PC3 mock tumors; experiment: Small animal PET in mice bearing PC3 PD-L1 and PC3 mock tumors; assay type: in vivo; settings: for SUVmax PC3 PD-L1 tumor / SUVmax PC3 mock tumor / Uptake (SUVmean) Bone (spine) / Uptake (SUVmean) Gall bladder / Uptake (SUVmean) Heart / Uptake (SUVmean) Liver / Uptake (SUVmean) PC3 PD-L1 tumor / Uptake (SUVmean) PC3 mock tumor / Uptake (SUVmean) Small intestine: 1–2 h p.i.; for Uptake (SUVmean) Bone (spine) / Uptake (SUVmean) Gall bladder / Uptake (SUVmean) Heart / Uptake (SUVmean) Liver / Uptake (SUVmean) PC3 PD-L1 tumor / Uptake (SUVmean) PC3 mock tumor / Uptake (SUVmean) Small intestine: mean; for transition from liver and gall bladder into the intestine: time-activity curves
Description: Male athymic NMRI-nude mice (Rj:NMRI-Foxn1nu, Charels River, Germany) aged 8 to 16 weeks were used to investigate pharmacokinetics and tumor uptake. For subcutaneous injection of cells, general anesthesia was induced with ~ 10% desflurane (Baxter, Deerfield, IL, USA) in 30 vol% oxygen + air at controlled 37 °C. Mice were injected with 3–5 × 10^6 PC3 PD-L1 and PC3 mock cells (in 50 µL PBS + 50 µL Matrigel, Corning, Glendale, CA, USA) into the right and left thigh, respectively. Tumor growth was monitored (3 times per week) using calipers, and animals enrolled in PET scans once tumors reached 7 mm.
Under general anesthesia, PET and X-ray computed tomography (CT) scans were conducted using a small animal PET/CT scanner (nanoScan PET/CT, Mediso, Budapest, Hungary), with four animals imaged simultaneously. CT images were used for attenuation correction and anatomical referencing.
The radiotracer candidates were diluted in 200–300 µL sterile 0.9% NaCl (and up to 2% EtOH, pH 6–7) and intravenously delivered over 30 s through a lateral tail vein catheter. PET acquisition (2 h p.i.) was started simultaneously with the administration. Injected activities were between 5 and 12 MBq (with molar activities 5–18 GBq/µmol). If animals were subjected to an additional scan later, the minimum time in between was > 3 days to allow decay and full metabolization.
The acquired three-dimensional list mode data were sorted and binned within a 400–600 keV energy window, forming 35 time frames (15 × 10 s, 5 × 30 s, 5 × 60 s, 4 × 300 s, 3 × 600 s, 3 × 1200 s). Reconstruction was performed with Mediso’s Tera-Tomo™ 3D algorithm, with a voxel size of 0.4 mm and corrections for decay, scatter, and attenuation. The images were subjected to post-processing and analysis using Rover software (ABX GmbH, Radeberg, Germany), and are shown as maximum intensity projections (MIPs) at the specified timepoint and scaling.
Three-dimensional volumes of interest were defined using fixed thresholding at 35–40% of the maximum measured intensity. Standardized uptake values (SUV = [MBq detected activity/mL tissue]/[MBq injected activity/g body weight], in mL/g) were then calculated within the selected volumes of interest, e.g. PD-L1 and mock tumors, as well as other relevant and metabolizing organs.

PC3 PD-L1 cells = target: T2, PC3 PD-L1 cells (Homo sapiens, UniProt Q9NZQ7); experiment: Real-time radioligand binding (LigandTracer) to PC3 PD-L1 cells; settings: room temperature
T2 construct: expressed in transfected cells; host or cells: PC3 cells (human prostate carcinoma) transduced to overexpress human PD-L1
T2 sequence (Q9NZQ7 19-290): as above
Description: The LigandTracer system (Ridgeview Instruments AB, Uppsala, Sweden) allows assessing the binding kinetics (association rate constant ka and dissociation rate constant kd) and therefore dissociation constant (KD) of radiolabeled compounds. For that purpose, target-positive PC3 PD-L1 cells are seeded to a quadrant of a petri dish (Thermo Scientific Nunclon Delta #150350). In our initial tests, 1.2x10^6 cells were seeded one day prior to the experiment.
The petri dish is then placed in the instrument, the culture medium removed and replaced with 3 mL CO2-independent medium (Gibco #18045088, ThermoFisher Germany). In the LigandTracer system, the dish rotates on an inclined base, with cells in medium (3 mL) located on one side (target), while no cells (background) are located on the other side. Radioactivity (counts per second) is then constantly measured for 30 seconds on either side. This allows continuous measurements of two (or more) alternating parts of the dish for bound radioactivity, with target – background indicating binding over time.
All experiments were performed at room temperature. Association of compounds was observed following incubation with two increasing concentrations of the tracer. The tracer-containing solution was then exchanged for fresh medium, to allow observation of dissociation for at least 120 min.

Cc1c(COc2cc(OCc3cncc(S(C)(=O)=O)c3)c(CN(C)C(=O)[C@H](CS(=O)(=O)O)NC(=O)[C@H](CS(=O)(=O)O)NC(=O)CCP(=O)(O)O)cc2Cl)cccc1-c1cccc(OCc2cn([C@@H]3O[C@H](CF)[C@@H](O)[C@H](O)[C@H]3O)nn2)c1C [Compound 2, (R)−3-((5-Chloro-4-((3'-((1-((2R,3R,4S,5S,6S)−6-(fluoromethyl)−3,4,5-trihydroxytetrahydro-2H-pyran-2-yl)−1H-1,2,3-triazol-4-yl)methoxy)−2,2'-dimethyl-[1,1'-biphenyl]−3-yl)methoxy)−2-((5-(methylsulfonyl)pyridin-3-yl)methoxy)benzyl)(methyl)amino)−3-oxo-2-((R)−2-(3-phosphonopropanamido)−3-sulfopropanamido)propane-1-sulfonic acid]
Ki (human PD-L1): 189 nM

Cc1c(COc2cc(OCc3cncc(S(C)(=O)=O)c3)c(CN(C)C(=O)[C@H](CS(=O)(=O)O)NC(=O)[C@H](CS(=O)(=O)O)NC(=O)CCP(=O)(O)O)cc2Cl)cccc1-c1cccc(OCc2cn(CCOCCOCCF)nn2)c1C [Compound 3, (R)−3-((5-Chloro-4-((3'-((1-(2-(2-(2-fluoroethoxy)ethoxy)ethyl)−1H-1,2,3-triazol-4-yl)methoxy)−2,2'-dimethyl-[1,1'-biphenyl]−3-yl)methoxy)−2-((5-(methylsulfonyl)pyridin-3-yl)methoxy)benzyl)(methyl)amino)−3-oxo-2-((R)−2-(3-phosphonopropanamido)−3-sulfopropanamido)propane-1-sulfonic acid]
Ki (human PD-L1): 475 nM

Cc1c(COc2cc(OCc3cncc(S(C)(=O)=O)c3)c(CN(C)C(=O)[C@H](CS(=O)(=O)O)NC(=O)[C@H](CS(=O)(=O)O)NC(=O)CCP(=O)(O)O)cc2Cl)cccc1-c1cccc(OCc2cn([C@@H]3O[C@H](C[18F])[C@@H](O)[C@H](O)[C@H]3O)nn2)c1C [[^18F]F-2]
radiotracer remaining intact [1]: up to 99%
Ki (human PD-L1): 189 nM
bone uptake (sign of defluorination) [2]: lacked a discernible bone uptake
excretion route [2]: exclusively excreted via the hepatobiliary route
target-specific tumor uptake, PC3 PD-L1 versus PC3 mock [2]: marked absence of target-specific uptake
SUVmax PC3 PD-L1 tumor [2]: 0.66
SUVmax PC3 mock tumor [2]: 0.77
Uptake (SUVmean) Bone (spine) [2]: 0.25
Uptake (SUVmean) Gall bladder [2]: 46.45
Uptake (SUVmean) Heart [2]: 0.86
Uptake (SUVmean) Liver [2]: 1.61
Uptake (SUVmean) PC3 PD-L1 tumor [2]: 0.34
Uptake (SUVmean) PC3 mock tumor [2]: 0.39
Uptake (SUVmean) Small intestine [2]: 114.55
transition from liver and gall bladder into the intestine [2]: 10 to 15 min

Cc1c(COc2cc(OCc3cncc(S(C)(=O)=O)c3)c(CN(C)C(=O)[C@H](CS(=O)(=O)O)NC(=O)[C@H](CS(=O)(=O)O)NC(=O)CCP(=O)(O)O)cc2Cl)cccc1-c1cccc(OCc2cn(CCOCCOCC[18F])nn2)c1C [[^18F]F-3]
radiotracer remaining intact [1]: up to 99%
Ki (human PD-L1): 475 nM
bone uptake (sign of defluorination) [2]: lacked a discernible bone uptake
excretion route [2]: exclusively excreted via the hepatobiliary route
target-specific tumor uptake, PC3 PD-L1 versus PC3 mock [2]: marked absence of target-specific uptake
SUVmax PC3 PD-L1 tumor [2]: 0.30
SUVmax PC3 mock tumor [2]: 0.34
Uptake (SUVmean) Bone (spine) [2]: 0.13
Uptake (SUVmean) Gall bladder [2]: 150.54
Uptake (SUVmean) Heart [2]: 0.20
Uptake (SUVmean) Liver [2]: 0.70
Uptake (SUVmean) PC3 PD-L1 tumor [2]: 0.17
Uptake (SUVmean) PC3 mock tumor [2]: 0.17
Uptake (SUVmean) Small intestine [2]: 105.54
transition from liver and gall bladder into the intestine [2]: 10 to 15 min
real-time radioligand binding, bound radioactivity over time (PC3 PD-L1 cells): almost no binding takes place and no
